Source: ChEMBL document CHEMBL1201862, “PubChem BioAssay data set” (2004)
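Step 1: Grow cells in 96-well plates. Step 2: Expose to compound for 48 hours at 5 concentrations. Step 3: Interpolate endpoints linearly; if unreached, use highest concentration. Here, GI50 denotes the concentration required for 50% inhibition of growth.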 Activity calls are given as the source filed them. No stated cut-off is given here; in the data, active = GI50 up to about 1.1 µM and inactive = higher.

Key:
Test in all cases: NCI anticancer screen, dose series, 48 h
A549 = tested on: A549
OVCAR-4 = tested on: OVCAR-4
UACC-62 = tested on: UACC-62
SK-OV-3 = tested on: SK-OV-3
MDA-MB-231 = tested on: MDA-MB-231
EKVX = tested on: EKVX
ACHN = tested on: ACHN
NCI/ADR-RES = tested on: NCI/ADR-RES
BT-549 = tested on: BT-549
SK-MEL-5 = tested on: SK-MEL-5
K562 = tested on: K562
SF-295 = tested on: SF-295
RXF 393 = tested on: RXF 393
SN12C = tested on: SN12C
HL-60 = tested on: HL-60
T47D = tested on: T47D
A498 = tested on: A498
SR = tested on: SR
PC-3 = tested on: PC-3
OVCAR-3 = tested on: OVCAR-3
U-251 = tested on: U-251
Malme-3M = tested on: Malme-3M
HCC 2998 = tested on: HCC 2998
Hs-578T = tested on: Hs-578T
MOLT-4 = tested on: MOLT-4
HOP-92 = tested on: HOP-92
HOP-62 = tested on: HOP-62
CCRF-CEM = tested on: CCRF-CEM
SNB-75 = tested on: SNB-75
NCI-H522 = tested on: NCI-H522
CAKI-1 = tested on: CAKI-1
NCI-H460 = tested on: NCI-H460
SNB-19 = tested on: SNB-19
OVCAR-8 = tested on: OVCAR-8
M14 = tested on: M14
OVCAR-5 = tested on: OVCAR-5
NCI-H226 = tested on: NCI-H226
SF-539 = tested on: SF-539
LOX IMVI = tested on: LOX IMVI
SK-MEL-2 = tested on: SK-MEL-2
KM12 = tested on: KM12
MDA-MB-435 = tested on: MDA-MB-435
HT-29 = tested on: HT-29
HCT-116 = tested on: HCT-116
MDA-N = tested on: MDA-N
RPMI-8226 = tested on: RPMI-8226
COLO 205 = tested on: COLO 205
SF-268 = tested on: SF-268
SK-MEL-28 = tested on: SK-MEL-28
786-0 = tested on: 786-0
IGROV-1 = tested on: IGROV-1
UACC-257 = tested on: UACC-257
TK-10 = tested on: TK-10
DU-145 = tested on: DU-145
MCF7 = tested on: MCF7
UO-31 = tested on: UO-31
NCI-H23 = tested on: NCI-H23
HCT-15 = tested on: HCT-15
SW-620 = tested on: SW-620
KM-20L2 = tested on: KM-20L2
HOP-18 = tested on: HOP-18
DLD-1 = tested on: DLD-1
DMS-273 = tested on: DMS-273
SNB-78 = tested on: SNB-78
DMS-114 = tested on: DMS-114
LXFL 529 = tested on: LXFL 529
M19-MEL = tested on: M19-MEL

Measured: GI50

N#Cc1nc(C#N)n(S(=O)(=O)c2ccccc2)c1NS(=O)(=O)c1ccccc1
inactive: A549 > 100 µM | OVCAR-4 > 100 µM | UACC-62 > 100 µM | SK-OV-3 > 100 µM | MDA-MB-231 > 100 µM | EKVX > 53.2 µM | ACHN > 100 µM | NCI/ADR-RES > 100 µM | BT-549 > 100 µM | SK-MEL-5 > 100 µM | K562 > 100 µM | SF-295 > 100 µM | RXF 393 > 100 µM | SN12C > 100 µM | HL-60 > 100 µM | T47D > 100 µM | A498 > 100 µM | SR > 38.1 µM | PC-3 > 100 µM | OVCAR-3 > 100 µM | U-251 > 100 µM | Malme-3M > 100 µM | HCC 2998 > 100 µM | Hs-578T > 100 µM | MOLT-4 > 100 µM | HOP-92 > 100 µM | HOP-62 > 100 µM | CCRF-CEM > 100 µM | SNB-75 > 65.3 µM | NCI-H522 > 100 µM | CAKI-1 > 37.8 µM | NCI-H460 > 100 µM | SNB-19 > 100 µM | OVCAR-8 > 100 µM | M14 > 100 µM | OVCAR-5 > 100 µM | NCI-H226 > 100 µM | SF-539 > 100 µM | LOX IMVI > 100 µM | SK-MEL-2 > 31.6 µM | KM12 > 100 µM | MDA-MB-435 > 100 µM | HT-29 > 100 µM | HCT-116 > 100 µM | MDA-N > 100 µM | RPMI-8226 > 100 µM | COLO 205 > 100 µM | SF-268 > 100 µM | SK-MEL-28 > 100 µM | 786-0 > 100 µM | IGROV-1 > 100 µM | UACC-257 > 100 µM | TK-10 > 100 µM | DU-145 > 100 µM | MCF7 > 100 µM | UO-31 27 µM | NCI-H23 > 100 µM | SW-620 > 100 µM
> 100 µM: HCT-15

CN(C)CCNC(=O)c1ccc2ccc3cccnc3c2n1
11.8 µM: HCT-15
inactive: A549 12.1 µM | OVCAR-4 14.5 µM | UACC-62 16.6 µM | SK-OV-3 19.5 µM | EKVX 15.5 µM | ACHN 7.45 µM | SK-MEL-5 13.9 µM | K562 21.5 µM | SF-295 18.7 µM | RXF 393 12.8 µM | SN12C 13.8 µM | HL-60 26.4 µM | A498 14.3 µM | SR 4.24 µM | KM-20L2 9.57 µM | OVCAR-3 24.7 µM | U-251 16.3 µM | HOP-18 26.2 µM | DLD-1 6.55 µM | Malme-3M 13.5 µM | HCC 2998 10.5 µM | DMS-273 6.89 µM | MOLT-4 3.44 µM | HOP-92 16.4 µM | HOP-62 19.2 µM | CCRF-CEM 18.9 µM | SNB-75 16 µM | NCI-H522 7.23 µM | CAKI-1 13.1 µM | NCI-H460 6.18 µM | SNB-19 19.6 µM | OVCAR-8 8.17 µM | M14 16.4 µM | OVCAR-5 14.6 µM | NCI-H226 14.3 µM | SF-539 8.63 µM | LOX IMVI 9.51 µM | SK-MEL-2 15.2 µM | KM12 18.2 µM | SNB-78 7.78 µM | HT-29 9.14 µM | HCT-116 4.02 µM | COLO 205 8.24 µM | SF-268 16.2 µM | DMS-114 12.1 µM | SK-MEL-28 27.9 µM | 786-0 11.1 µM | IGROV-1 25.7 µM | UACC-257 15.3 µM | TK-10 9.35 µM | UO-31 12.2 µM | NCI-H23 17.1 µM | LXFL 529 11.8 µM | SW-620 5.98 µM

CCn1cnnc1-c1nsc2ccccc12
active: SNB-75 0.369 µM
inactive: A549 > 100 µM | OVCAR-4 > 100 µM | UACC-62 > 100 µM | EKVX 26.9 µM | ACHN > 100 µM | SK-MEL-5 83.8 µM | K562 68.1 µM | RXF 393 23.2 µM | SN12C > 100 µM | HL-60 > 100 µM | SR > 100 µM | KM-20L2 > 100 µM | OVCAR-3 65.9 µM | U-251 > 100 µM | HOP-18 > 100 µM | HCC 2998 > 100 µM | DMS-273 > 100 µM | MOLT-4 > 10 µM | HOP-92 45.3 µM | HOP-62 > 100 µM | CCRF-CEM > 100 µM | NCI-H460 > 100 µM | SNB-19 > 100 µM | OVCAR-8 > 100 µM | M14 > 100 µM | OVCAR-5 7.52 µM | SF-539 > 100 µM | LOX IMVI > 100 µM | SK-MEL-2 > 100 µM | KM12 > 100 µM | SNB-78 > 100 µM | HT-29 > 100 µM | HCT-116 > 100 µM | RPMI-8226 > 100 µM | COLO 205 > 100 µM | SF-268 > 100 µM | DMS-114 > 100 µM | M19-MEL > 100 µM | SK-MEL-28 > 100 µM | IGROV-1 > 100 µM | UACC-257 > 100 µM | TK-10 > 100 µM | UO-31 > 100 µM | NCI-H23 > 100 µM | LXFL 529 > 100 µM | SW-620 > 100 µM
> 100 µM: HCT-15
